Source: patent US8623879B2, “1-heterocyclyl-1,5-dihydro-pyrazolo[3,4-D] pyrimidin-4-one derivates and their use as PDE9A modulators” (Boehringer Ingelheim International GmbH, priority 2008, dated 2014)

Target: T1, human PDE9A2 (Homo sapiens, UniProt O76083)
T1 construct: made in house; host or cells: Sf9 insect cells (infected); crude lysate used as enzyme source
Experiment: PDE9A2 enzymatic activity assay (scintillation proximity assay, SPA)
Type: biochemical
Conditions: for inhibition at 10 µM: read-out: % inhibition of PDE9A2 (at 10 micromolar concentration), 10 micromolar concentration, values above 100% adjusted to 100%; for IC50: reported only as range 1-100 or 101-1200 nanomolar, specific value lies within range, read-out: IC50 within range [nanomolar (nM)]

T1 sequence (O76083 1-533 isoform O76083-2): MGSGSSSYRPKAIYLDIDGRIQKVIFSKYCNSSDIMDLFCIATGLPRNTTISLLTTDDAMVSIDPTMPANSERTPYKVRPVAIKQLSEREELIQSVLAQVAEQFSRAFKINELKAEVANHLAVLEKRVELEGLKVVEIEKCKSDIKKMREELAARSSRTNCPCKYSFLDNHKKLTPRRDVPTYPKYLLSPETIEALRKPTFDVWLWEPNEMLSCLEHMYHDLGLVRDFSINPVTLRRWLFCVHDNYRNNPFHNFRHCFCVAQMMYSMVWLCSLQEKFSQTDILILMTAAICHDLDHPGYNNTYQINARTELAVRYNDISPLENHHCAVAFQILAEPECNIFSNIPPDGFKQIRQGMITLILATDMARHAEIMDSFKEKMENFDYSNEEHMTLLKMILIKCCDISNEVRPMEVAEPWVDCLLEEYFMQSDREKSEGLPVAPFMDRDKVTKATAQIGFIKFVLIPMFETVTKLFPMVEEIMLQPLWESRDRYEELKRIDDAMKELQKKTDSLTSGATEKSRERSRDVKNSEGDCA

Row | Structure (SMILES) | inhibition at 10 µM | IC50
1 | CN1CCCC(n2ncc3c(=O)[nH]c(Cc4ccccc4)nc32)C1 (racemic) [Example 215] | 93% | 101 to 1200 nM
2 | O=c1[nH]c(CC2CCC2)nc2c1cnn2C1CCCN(CC(F)(F)F)C1 (racemic) [Example 192] | 100% | 101 to 1200 nM
3 | O=C1CC(n2ncc3c(=O)[nH]c(CC4CCCC4)nc32)CCO1 (stereo not drawn) [Example 233] | 100% | 1 to 100 nM
4 | O=c1[nH]c(C(F)(F)c2ccccc2)nc2c1cnn2C1CCOCC1 [Example 13] | 90% | 101 to 1200 nM
5 | CC(C)Cc1nc2c(cnn2C2CCOC(C)C2)c(=O)[nH]1 (racemic) [Example 114] | 89% | 101 to 1200 nM
6 | O=c1[nH]c(Cc2c(F)ccc(F)c2Cl)nc2c1cnn2C1CCOCC1 [Example 37] | 97% | 1 to 100 nM
7 | O=c1[nH]c(CC2CC2)nc2c1cnn2C1CCCCO1 (racemic) [Example 147-2] | 87% | 101 to 1200 nM
8 | O=c1[nH]c(Cc2ccc(F)cc2)nc2c1cnn2C1CCOCC1 [Example 140] | 100% | 1 to 100 nM
9 | CC(=O)N1CCCC(n2ncc3c(=O)[nH]c(Cc4ccccc4)nc32)C1 (racemic) [Example 158] | 97% | 1 to 100 nM
10 | CCCCc1nc2c(cnn2C2CCOCC2)c(=O)[nH]1 [Example 8] | 100% | 1 to 100 nM
11 | O=c1[nH]c(CC2CCCC2)nc2c1cnn2C1CCCNC1 (racemic) [Example 196] | 91% | 101 to 1200 nM
12 | COc1ccccc1Cc1nc2c(cnn2C2CCOC2)c(=O)[nH]1 (racemic) [Example 83] | 96% | 1 to 100 nM
13 | O=c1[nH]c(Cc2ccc(F)cc2)nc2c1cnn2C1CCCOC1 (racemic) [Example 101] | 98% | 1 to 100 nM
14 | O=c1[nH]c(Cc2ccccc2C(F)(F)F)nc2c1cnn2C1CCCOC1 (racemic) [Example 97] | 98% | 1 to 100 nM

The next lines start with the values.

Row | inhibition at 10 µM | IC50 | Structure (SMILES)
15 | 98% | 101 to 1200 nM | CCc1cc(OC)ccc1Cc1nc2c(cnn2C2CCOCC2)c(=O)[nH]1 [Example 235]
16 | 100% | 1 to 100 nM | O=c1[nH]c(CC2CCCC2)nc2c1cnn2C1CCCOC1 (racemic) [Example 90]
17 | 99% | 1 to 100 nM | O=c1[nH]c(CC2CCCCC2)nc2c1cnn2C1CCCOC1 (racemic) [Example 103]
18 | 97% | 1 to 100 nM | CCC(C)Cc1nc2c(cnn2C2CCOC2)c(=O)[nH]1 (mixture of isomers) [Example 84]
19 | 97% | 1 to 100 nM | CCOc1ccccc1Cc1nc2c(cnn2C2CCCOC2)c(=O)[nH]1 (racemic) [Example 93]
20 | 100% | 1 to 100 nM | O=c1[nH]c(Cc2ccccc2OC(F)(F)F)nc2c1cnn2C1CCOCC1 [Example 138]
21 | 86% | 101 to 1200 nM | CN1CCC(n2ncc3c(=O)[nH]c(Cc4ccccc4)nc32)CC1 [Example 148]
22 | 95% | 101 to 1200 nM | O=c1[nH]c(Cc2ccccn2)nc2c1cnn2C1CCOC1 (racemic) [Example 124]
23 | 97% | 1 to 100 nM | CN1CCC(n2ncc3c(=O)[nH]c(Cc4ccccc4)nc32)C1 (racemic) [Example 210]
24 | 99% | 1 to 100 nM | O=c1[nH]c(Cc2ccc(F)c(Cl)c2)nc2c1cnn2C1CCOC1 (racemic) [Example 71]
25 | 93% | 101 to 1200 nM | CC(=O)N1CCC(n2ncc3c(=O)[nH]c(Cc4ccccc4)nc32)CC1 [Example 152]
26 | 96% | 1 to 100 nM | O=c1[nH]c(Cc2ccccc2O[C@H]2CCOC2)nc2c1cnn2C1CCOCC1 [Example 58]
27 | 96% | 1 to 100 nM | O=c1[nH]c(Cc2ccccn2)nc2c1cnn2C1CCOCC1 [Example 51]
